Assay [1] addresses T1, Adenosine receptor A1 (Homo sapiens) (UniProt P30542).
T1 sequence (whole entry): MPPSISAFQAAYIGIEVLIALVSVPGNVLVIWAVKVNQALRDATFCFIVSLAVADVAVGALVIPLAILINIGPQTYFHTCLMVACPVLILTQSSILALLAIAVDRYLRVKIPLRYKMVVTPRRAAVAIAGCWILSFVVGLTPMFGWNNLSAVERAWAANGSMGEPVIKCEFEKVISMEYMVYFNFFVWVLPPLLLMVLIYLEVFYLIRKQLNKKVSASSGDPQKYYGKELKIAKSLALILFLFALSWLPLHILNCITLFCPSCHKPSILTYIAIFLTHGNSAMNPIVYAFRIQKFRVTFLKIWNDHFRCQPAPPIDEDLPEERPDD
Briefly: Allosteric enhancer activity at human adenosine A1 receptor expressed in CHO cells assessed as inhibition of forskolin-induced cAMP production at 10 uM. The class given is functional, cell-based. In general terms: cAMP levels reflect the balance of adenylyl cyclase and phosphodiesterase activity.

In assay [2] the target is T1, Adenosine receptor A1 (Homo sapiens). Nature of the assay: Allosteric enhancer activity at human adenosine A1 receptor expressed in CHO cells assessed as inhibition of forskolin-induced cAMP production at 100 nM in presence of 1 pM CCPA. The class given is functional, cell-based.
Assay [3] shares this target. Briefly: Displacement of [3H]DPCPX from human adenosine A1 receptor expressed in CHO cell membranes at 10 uM. A general note: In a radioligand displacement assay an active substance lowers the binding of a labelled ligand.
For assay [4], the target named is Adenosine receptor A2a (Homo sapiens) (UniProt P29274). Nature of the assay: Displacement of [3H]ZM241385 from human adenosine A2A receptor expressed in CHO cell membranes at 10 uM.
The target of assay [5] is T2, Adenosine receptor A3 (Homo sapiens) (UniProt P0DMS8).
T2 sequence (whole entry): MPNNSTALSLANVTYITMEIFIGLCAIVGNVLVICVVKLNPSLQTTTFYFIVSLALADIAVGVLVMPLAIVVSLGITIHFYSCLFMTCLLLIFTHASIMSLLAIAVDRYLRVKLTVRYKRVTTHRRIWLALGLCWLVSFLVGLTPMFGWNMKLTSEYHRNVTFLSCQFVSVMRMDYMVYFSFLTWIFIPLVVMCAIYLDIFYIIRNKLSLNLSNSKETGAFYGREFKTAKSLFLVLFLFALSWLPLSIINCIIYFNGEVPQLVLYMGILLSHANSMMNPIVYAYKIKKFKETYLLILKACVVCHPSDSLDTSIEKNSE
Briefly: Displacement of [3H]MRE-3008-F20 from human adenosine 3 receptor expressed in CHO cell membranes at 10 uM.

The target of assay [6] is T1, Adenosine receptor A1 (Homo sapiens). Briefly: Allosteric enhancer activity at human adenosine A1 receptor expressed in CHO cell membranes assessed as shift in [3H]CCPA Bmax level at 10 uM by saturation binding assay.
For assay [7] the target is unchanged. Nature of the assay: Allosteric enhancer activity at human adenosine A1 receptor expressed in CHO cell membranes assessed as shift in CCPA binding Ki level at 10 uM by [3H]DPCPX competition binding assay.

Adenosine receptor A2a (Homo sapiens), sequence (P29274 whole entry): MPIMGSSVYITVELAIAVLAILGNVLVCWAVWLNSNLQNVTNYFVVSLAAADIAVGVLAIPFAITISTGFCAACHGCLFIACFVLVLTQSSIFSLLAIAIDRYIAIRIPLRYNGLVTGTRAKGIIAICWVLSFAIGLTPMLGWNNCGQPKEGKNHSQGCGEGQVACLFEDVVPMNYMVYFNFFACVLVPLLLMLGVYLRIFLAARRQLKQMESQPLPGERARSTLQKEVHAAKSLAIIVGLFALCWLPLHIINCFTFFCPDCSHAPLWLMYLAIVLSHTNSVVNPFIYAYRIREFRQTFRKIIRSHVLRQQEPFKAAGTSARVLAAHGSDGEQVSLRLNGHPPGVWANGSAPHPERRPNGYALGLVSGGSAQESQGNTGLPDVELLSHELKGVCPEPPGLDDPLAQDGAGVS

As a reminder, the inhibition is the change of the read-out against control, counted positive when it falls. Take `Nc1sc(C#Cc2ccccc2)c(CN2CCN(c3ccc(F)cc3)CC2)c1C(=O)c1ccc(Cl)cc1`: the inhibition in assay [1] was 37%; in assay [2], 38%; in assay [3], under 15%; in assay [4], under 15%; in assay [5], under 15%. For the same compound, the fold change (FC) in assay [6] and in assay [7] was 3.9 in each case.

As to `Cc1cccc(C#Cc2sc(N)c(C(=O)c3ccc(Cl)cc3)c2CC(C)(C)C)c1`, the inhibition in assay [1] is 68%; in assay [2], 71%; in assay [3], under 15%; in assay [4], under 15%; in assay [5], under 15%. Also, the figures for the fold change (FC) in assay [6] and in assay [7] were 7.5 and 7.1, respectively.

For `CC(C)(C)Cc1c(C#CC2CCCCC2)sc(N)c1C(=O)c1ccc(Cl)cc1`, the inhibition in assay [1] was 67%; in assay [2], 71%; in assay [3], under 15%; in assay [4], under 15%; in assay [5], under 15%. Further, the fold change (FC) in assay [6] was 8; in assay [7], 4.8.

For the compound `Nc1sc(C#Cc2ccccc2)c(CN2CCN(c3ccc(Cl)cc3)CC2)c1C(=O)c1ccc(Cl)cc1`, the inhibition in assay [1] is 35%; in assay [2], 35%; in assay [3], under 15%; in assay [4], under 15%; in assay [5] it was under 15%. Besides, the fold change (FC) stood at 3.4 in assay [6] and 3.6 in assay [7].

`CC(C)(C)Cc1c(C#Cc2ccsc2)sc(N)c1C(=O)c1ccc(Cl)cc1`: the inhibition is 60% in assay [1]; 63% in assay [2]; under 15% in assay [3]; under 15% in assay [4]; under 15% in assay [5]. In addition, the fold change (FC) in assay [6] turned out to be 5.7; in assay [7], 3.9.

For the compound `Nc1sc(CCc2ccccc2)c(-c2ccccc2)c1C(=O)c1ccc(Cl)cc1`, the inhibition was 25% in assay [1]; 24% in assay [2]; under 15% in assay [3]; under 15% in assay [4]; under 15% in assay [5]. For the same compound, the fold change (FC) in assay [6] worked out at 2.2; in assay [7], 1.6.

For `Cc1ccc(CCc2sc(N)c(C(=O)c3ccc(Cl)cc3)c2CC(C)(C)C)cc1`, the inhibition was 43% in assay [1]; 45% in assay [2]; under 15% in assay [3]; under 15% in assay [4]; under 15% in assay [5]. The fold change (FC) stood at 5 in assay [6] and 3.8 in assay [7].

As for `COc1ccc(C#Cc2sc(N)c(C(=O)c3ccc(Cl)cc3)c2CC(C)(C)C)cc1OC`, the inhibition in assay [1] was 72%; in assay [2], 74%; in assay [3] it was under 15%; in assay [4] it was under 15%; in assay [5], under 15%. Besides, the fold change (FC) was found to be 7.1 in assay [6] and 6.8 in assay [7].

For `Cc1cc(C)c(C#Cc2sc(N)c(C(=O)c3ccc(Cl)cc3)c2CC(C)(C)C)cc1C`, the inhibition in assay [1] is 68%; in assay [2] it was 67%; in assay [3], under 15%; in assay [4], under 15%; in assay [5], under 15%. The fold change (FC) in assay [6] is 7; in assay [7], 7.5.

On to `Cc1ccc(C)c(C#Cc2sc(N)c(C(=O)c3ccc(Cl)cc3)c2CC(C)(C)C)c1`, for which the inhibition in assay [1] is 62%; in assay [2] it was 66%; in assay [3] it was under 15%; in assay [4], under 15%; in assay [5], under 15%. The fold change (FC) in assay [6] was 6.2; in assay [7] it was 4.

As for `Cc1ccc(C#Cc2sc(N)c(C(=O)c3ccc(Cl)cc3)c2C)cc1`, the inhibition was 31% in assay [1]; 36% in assay [2]; under 15% in assay [3]; under 15% in assay [4]; under 15% in assay [5]. Also, the fold change (FC) turned out to be 2.3 in assay [6] and 1.7 in assay [7].

With `Cc1ccc(C#Cc2sc(N)c(C(=O)c3ccc(Cl)cc3)c2CC(C)(C)C)cc1`, the inhibition in assay [1] was 70%; in assay [2], 73%; in assay [3], under 15%; in assay [4], under 15%; in assay [5], under 15%. Also, the fold change (FC) in assay [6] came to 7.2; in assay [7] it was 7.5.

Take `Cc1c(CCc2ccccc2)sc(N)c1C(=O)c1ccc(Cl)cc1`: the inhibition was 28% in assay [1]; 27% in assay [2]; under 15% in assay [3]; under 15% in assay [4]; under 15% in assay [5]. Also, the fold change (FC) in assay [6] was found to be 2.2; in assay [7], 1.6.

On to `Nc1sc(C#Cc2ccccc2)cc1C(=O)c1ccc(Cl)cc1`, for which the inhibition in assay [1] was 20%; in assay [2], 25%; in assay [3], under 15%; in assay [4] it was under 15%; in assay [5], under 15%. Besides, the fold change (FC) in assay [6] was 2; in assay [7], 1.5.

As for `Nc1sc(-c2ccccc2)c(CN(C2CCCCC2)C2CCCCC2)c1C(=O)c1ccc(Cl)cc1`, the fold change (FC) in assay [6] worked out at 3.5; in assay [7] it was 3.2.

On to `Nc1sc(C#Cc2ccccc2)c(CN(C2CCCCC2)C2CCCCC2)c1C(=O)c1ccc(Cl)cc1`, for which the inhibition in assay [1] is 10%; in assay [2], 19%; in assay [3], under 15%; in assay [4] it was under 15%; in assay [5], under 15%. Besides, the fold change (FC) worked out at 1.2 in assay [6] and 3.7 in assay [7].

`Cc1ccc(-c2sc(N)c(C(=O)c3ccc(Cl)cc3)c2CC(C)(C)C)cc1`: the fold change (FC) is 6.4 in assay [6] and 6 in assay [7].

In the case of `Nc1sc(C#Cc2ccccc2)c(CN2CCN(c3ccccc3)CC2)c1C(=O)c1ccc(Cl)cc1`, the inhibition in assay [1] was 29%; in assay [2], 31%; in assay [3] it was under 15%; in assay [4], under 15%; in assay [5], under 15%. The fold change (FC) in assay [6] and in assay [7] was 2.8 each time.

In the case of `CC(C)(C)Cc1c(-c2ccccc2)sc(N)c1C(=O)c1ccc(Cl)cc1`, the figures for the fold change (FC) in assay [6] and in assay [7] were 6.9 and 4.8, respectively.

On to `Nc1sc(-c2ccccc2)c(CN2CCN(c3ccccc3)CC2)c1C(=O)c1ccc(Cl)cc1`, for which the fold change (FC) in assay [6] was 11.5; in assay [7], 8.3.

Consider `Cc1c(C#Cc2ccccc2)sc(N)c1C(=O)c1ccc(Cl)cc1`, for which the inhibition in assay [1] is 27%; in assay [2], 34%; in assay [3], under 15%; in assay [4] it was under 15%; in assay [5], under 15%. Further, the fold change (FC) in assay [6] was 2.5; in assay [7], 1.5.

Take `Nc1sc(C#Cc2ccccc2)c(-c2ccccc2)c1C(=O)c1ccc(Cl)cc1`: the inhibition was 24% in assay [1]; 25% in assay [2]; under 15% in assay [3]; under 15% in assay [4]; under 15% in assay [5]. In addition, the fold change (FC) in assay [6] amounted to 1.9; in assay [7], 1.5.

On to `COc1ccc(-c2sc(N)c(C(=O)c3ccc(Cl)cc3)c2CC(C)(C)C)cc1`, for which the values for the fold change (FC) in assay [6] and in assay [7] were 6.1 and 4.3, respectively.

On to `Nc1sc(C#Cc2ccccc2)c(CN2CCN(c3ccc(Cl)c(C(F)(F)F)c3)CC2)c1C(=O)c1ccc(Cl)cc1`, for which the inhibition in assay [1] is 30%; in assay [2] it was 36%; in assay [3], under 15%; in assay [4], under 15%; in assay [5] it was under 15%. Also, the results for the fold change (FC) in assay [6] and in assay [7] were 2.7 and 2.4, respectively.

With `Nc1sc(CCc2ccccc2)cc1C(=O)c1ccc(Cl)cc1`, the inhibition in assay [1] was 22%; in assay [2] it was 20%; in assay [3], under 15%; in assay [4], under 15%; in assay [5] it was under 15%. The fold change (FC) amounted to 1.7 in assay [6] and 1.3 in assay [7].

For the compound `Nc1sc(C#Cc2ccccc2)c(CN2CCN(c3ccc(Cl)c(Cl)c3)CC2)c1C(=O)c1ccc(Cl)cc1`, the inhibition in assay [1] is 22%; in assay [2] it was 24%; in assay [3] it was under 15%; in assay [4], under 15%; in assay [5], under 15%. Also, the fold change (FC) in assay [6] came to 2.1; in assay [7], 1.7.
